Source: PubChem BioAssay (NCI)
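GI50 marks 50% less growth. TGI is the concentration that stops growth completely.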

Columns and labels:
Assay in all cases: DTP human tumour cell line panel, 384-well format; in the data active = GI50 below about 0.43 µM; inactive = the rest
HOP-62 NSCLC = tested on: HOP-62 NSCLC
RXF 393 renal = tested on: RXF 393 renal
SF-295 CNS = tested on: SF-295 CNS
NCI-H226 lung = tested on: NCI-H226 lung
T-47D breast = tested on: T-47D breast
A549 NSCLC = tested on: A549 NSCLC
SNB-19 CNS = tested on: SNB-19 CNS
SNB-75 CNS = tested on: SNB-75 CNS
SN12C renal = tested on: SN12C renal
SK-MEL-5 melanoma = tested on: SK-MEL-5 melanoma
NCI-H322M lung = tested on: NCI-H322M lung
MDA-MB-435 melanoma = tested on: MDA-MB-435 melanoma
OVCAR-5 ovarian = tested on: OVCAR-5 ovarian
SK-MEL-28 melanoma = tested on: SK-MEL-28 melanoma
KM12 colon = tested on: KM12 colon
TK-10 renal = tested on: TK-10 renal
MDA-MB-468 breast = tested on: MDA-MB-468 breast
HS 578T breast = tested on: HS 578T breast
MDA-MB-231 breast = tested on: MDA-MB-231 breast
RPMI-8226 leukemia = tested on: RPMI-8226 leukemia
OVCAR-8 ovarian = tested on: OVCAR-8 ovarian
HCT-15 colon = tested on: HCT-15 colon
U251 glioblastoma = tested on: U251 glioblastoma
LOX IMVI melanoma = tested on: LOX IMVI melanoma
MOLT-4 leukemia = tested on: MOLT-4 leukemia
COLO 205 colon = tested on: COLO 205 colon
A498 renal = tested on: A498 renal
NCI/ADR-RES ovarian = tested on: NCI/ADR-RES ovarian
SW-620 colon = tested on: SW-620 colon
DU-145 prostate = tested on: DU-145 prostate
MCF7 breast = tested on: MCF7 breast
PC-3 prostate = tested on: PC-3 prostate
SF-539 CNS = tested on: SF-539 CNS
NCI-H460 NSCLC = tested on: NCI-H460 NSCLC
IGROV1 ovarian = tested on: IGROV1 ovarian
HCC-2998 colon = tested on: HCC-2998 colon
M14 melanoma = tested on: M14 melanoma
HL-60(TB) leukemia = tested on: HL-60(TB) leukemia
ACHN renal = tested on: ACHN renal
UACC-257 melanoma = tested on: UACC-257 melanoma
HOP-92 NSCLC = tested on: HOP-92 NSCLC
CCRF-CEM leukemia = tested on: CCRF-CEM leukemia
MALME-3M melanoma = tested on: MALME-3M melanoma
OVCAR-4 ovarian = tested on: OVCAR-4 ovarian
EKVX NSCLC = tested on: EKVX NSCLC
786-0 renal = tested on: 786-0 renal
NCI-H23 lung = tested on: NCI-H23 lung
SK-OV-3 ovarian = tested on: SK-OV-3 ovarian
OVCAR-3 ovarian = tested on: OVCAR-3 ovarian
CAKI-1 renal = tested on: CAKI-1 renal
HT29 colon = tested on: HT29 colon
SR leukemia = tested on: SR leukemia
UO-31 renal = tested on: UO-31 renal
BT-549 breast = tested on: BT-549 breast
K-562 leukemia = tested on: K-562 leukemia
UACC-62 melanoma = tested on: UACC-62 melanoma
NCI-H522 lung = tested on: NCI-H522 lung
SF-268 CNS = tested on: SF-268 CNS

O=C(NOC[C@H](O)CO)c1ccc(F)c(F)c1Nc1ccc(I)cc1F
92.7 µM: TGI (MOLT-4 leukemia)
> 100 µM: TGI (HOP-62 NSCLC) | TGI (RXF 393 renal) | TGI (SF-295 CNS) | TGI (T-47D breast) | TGI (SNB-19 CNS) | TGI (NCI-H322M lung) | TGI (MDA-MB-435 melanoma) | TGI (KM12 colon) | TGI (TK-10 renal) | TGI (HS 578T breast) | TGI (OVCAR-8 ovarian) | TGI (HCT-15 colon) | TGI (U251 glioblastoma) | TGI (A498 renal) | TGI (SW-620 colon) | TGI (DU-145 prostate) | TGI (MCF7 breast) | TGI (PC-3 prostate) | TGI (NCI-H460 NSCLC) | TGI (ACHN renal) | TGI (CCRF-CEM leukemia) | TGI (EKVX NSCLC) | TGI (786-0 renal) | TGI (SK-OV-3 ovarian) | TGI (OVCAR-3 ovarian) | TGI (CAKI-1 renal) | TGI (HT29 colon) | TGI (SR leukemia) | TGI (BT-549 breast) | TGI (K-562 leukemia) | TGI (NCI-H522 lung) | TGI (SF-268 CNS)
18.1 µM: TGI (NCI-H226 lung)
0.0136 µM: TGI (COLO 205 colon)
22.9 µM: TGI (SN12C renal)
< 0.01 µM: TGI (SK-MEL-28 melanoma) | TGI (M14 melanoma) | TGI (HL-60(TB) leukemia) | TGI (UACC-257 melanoma) | TGI (MALME-3M melanoma) | TGI (UACC-62 melanoma)
45.8 µM: TGI (SK-MEL-5 melanoma)
74.2 µM: TGI (SNB-75 CNS)
0.0395 µM: TGI (HCC-2998 colon)
65.9 µM: TGI (SF-539 CNS)
39.1 µM: TGI (IGROV1 ovarian)
0.722 µM: TGI (LOX IMVI melanoma)
18 µM: TGI (RPMI-8226 leukemia)
0.492 µM: TGI (HOP-92 NSCLC)
25.5 µM: TGI (A549 NSCLC)
active: GI50 (HOP-62 NSCLC) 0.0116 µM | GI50 (NCI-H226 lung) < 0.01 µM | GI50 (A549 NSCLC) 0.0196 µM | GI50 (SNB-19 CNS) 0.164 µM | GI50 (SN12C renal) < 0.01 µM | GI50 (SK-MEL-5 melanoma) < 0.01 µM | GI50 (NCI-H322M lung) 0.0373 µM | GI50 (MDA-MB-435 melanoma) < 0.01 µM | GI50 (OVCAR-5 ovarian) < 0.01 µM | GI50 (SK-MEL-28 melanoma) < 0.01 µM | GI50 (KM12 colon) < 0.01 µM | GI50 (MDA-MB-231 breast) 0.0331 µM | GI50 (RPMI-8226 leukemia) < 0.01 µM | GI50 (LOX IMVI melanoma) < 0.01 µM | GI50 (COLO 205 colon) < 0.01 µM | GI50 (SW-620 colon) < 0.01 µM | GI50 (NCI-H460 NSCLC) 0.369 µM | GI50 (IGROV1 ovarian) 0.0573 µM | GI50 (HCC-2998 colon) < 0.01 µM | GI50 (M14 melanoma) < 0.01 µM | GI50 (HL-60(TB) leukemia) < 0.01 µM | GI50 (UACC-257 melanoma) < 0.01 µM | GI50 (HOP-92 NSCLC) 0.0133 µM | GI50 (MALME-3M melanoma) < 0.01 µM | GI50 (OVCAR-4 ovarian) 0.0375 µM | GI50 (EKVX NSCLC) 0.358 µM | GI50 (NCI-H23 lung) < 0.01 µM | GI50 (CAKI-1 renal) 0.0974 µM | GI50 (HT29 colon) < 0.01 µM | GI50 (K-562 leukemia) 0.205 µM | GI50 (UACC-62 melanoma) < 0.01 µM
0.391 µM: TGI (NCI-H23 lung)
inactive: GI50 (RXF 393 renal) 0.645 µM | GI50 (SF-295 CNS) 22.3 µM | GI50 (T-47D breast) 11.8 µM | GI50 (SNB-75 CNS) 2.68 µM | GI50 (TK-10 renal) 0.689 µM | GI50 (MDA-MB-468 breast) 0.865 µM | GI50 (HS 578T breast) 2.73 µM | GI50 (OVCAR-8 ovarian) 11.8 µM | GI50 (HCT-15 colon) 0.749 µM | GI50 (U251 glioblastoma) 0.577 µM | GI50 (MOLT-4 leukemia) 28.1 µM | GI50 (A498 renal) 0.436 µM | GI50 (NCI/ADR-RES ovarian) 6.17 µM | GI50 (DU-145 prostate) 3.46 µM | GI50 (MCF7 breast) 33.7 µM | GI50 (PC-3 prostate) > 100 µM | GI50 (SF-539 CNS) 1.34 µM | GI50 (ACHN renal) 0.471 µM | GI50 (CCRF-CEM leukemia) 39.8 µM | GI50 ([…]-0 renal) 10.4 µM | GI50 (SK-OV-3 ovarian) 7.02 µM | GI50 (OVCAR-3 ovarian) 21.8 µM | GI50 (SR leukemia) 26.4 µM | GI50 (UO-31 renal) 0.506 µM | GI50 (BT-549 breast) 9.53 µM | GI50 (NCI-H522 lung) 15.3 µM | GI50 (SF-268 CNS) 33.3 µM
0.934 µM: TGI (MDA-MB-231 breast)
65.7 µM: TGI (OVCAR-4 ovarian)
10.9 µM: TGI (MDA-MB-468 breast)
24.1 µM: TGI (UO-31 renal)
26.1 µM: TGI (OVCAR-5 ovarian)
85.1 µM: TGI (NCI/ADR-RES ovarian)
